These results are taken from PMC12136187, “A Full-Spectrum Generative Lead Discovery (FSGLD) Pipeline via DRUG-GAN: A Multiscale Method for Drug-like/Target-specific Compound Library Generation” (Research Square, 2025).

The target in this assay is T1, CB2 receptor (cannabinoid receptor 2) (Homo sapiens, UniProt P34972).
T1 construct: gene CNR2
The assay is described as follows: radioligand binding assay, dose-response.

T1 sequence (P34972 whole entry): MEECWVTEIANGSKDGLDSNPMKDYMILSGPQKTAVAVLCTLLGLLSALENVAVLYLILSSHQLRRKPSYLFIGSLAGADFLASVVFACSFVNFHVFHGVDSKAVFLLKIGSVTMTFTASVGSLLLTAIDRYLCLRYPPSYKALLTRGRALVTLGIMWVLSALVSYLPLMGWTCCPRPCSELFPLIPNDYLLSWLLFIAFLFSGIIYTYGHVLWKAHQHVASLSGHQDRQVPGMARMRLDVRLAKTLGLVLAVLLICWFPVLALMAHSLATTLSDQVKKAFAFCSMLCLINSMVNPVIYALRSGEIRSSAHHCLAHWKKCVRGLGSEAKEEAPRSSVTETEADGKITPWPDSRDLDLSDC

Take `CCCn1c(C)c(C(=O)NCC(=O)N2CCCCC2)c2cc(OC)ccc21` [ZINC77179032]: the affinity corresponds to a Ki of 3.77 µM.
